Measured values from patent US20260356856A1, “KRAS G12S AND G12C INHIBITORS” (MIRATI THERAPEUTICS, INC., priority 2023, published 2026).

Experiments:
[1] = target: T1, KRas-mediated phosphorylation of ERK in A549 cells (Homo sapiens, UniProt P01116, G12S); assay: Inhibition of KRas-mediated phosphorylation of ERK (HTRF), A549 cells; assay type: cell-based; conditions: HTRF pERK, 3 h incubation
T1 construct: pERK HTRF read-out

[2] = target: T2, KRas-mediated phosphorylation of ERK in H358 cells (Homo sapiens, UniProt P01116, G12C); assay: Inhibition of KRas-mediated phosphorylation of ERK (HTRF), H358 cells; assay type: cell-based; conditions: HTRF pERK, 3 h incubation
T2 construct: pERK HTRF read-out
T2 sequence (P01116 1-188 isoform P01116-2 G12C): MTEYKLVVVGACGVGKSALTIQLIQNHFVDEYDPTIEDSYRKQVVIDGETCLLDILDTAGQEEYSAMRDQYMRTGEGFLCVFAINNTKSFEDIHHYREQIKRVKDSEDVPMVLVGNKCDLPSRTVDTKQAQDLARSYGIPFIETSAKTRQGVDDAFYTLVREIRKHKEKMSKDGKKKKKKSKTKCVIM

KRas G12S = target: T3, KRas G12S (Homo sapiens, UniProt P01116, G12S); assay: KRas binding assay, TR-FRET displacement of Cy5 labelled tracer; conditions: 60-minute incubation at room temperature, 1% DMSO, pH 7.5
T3 construct: Biotinylated KRas (corresponding to amino acids 1-169, produced at Accelegan Inc.); biotin (biotinylated); purchased Accelegan Inc
T3 sequence (P01116 1-169 isoform P01116-2 G12S): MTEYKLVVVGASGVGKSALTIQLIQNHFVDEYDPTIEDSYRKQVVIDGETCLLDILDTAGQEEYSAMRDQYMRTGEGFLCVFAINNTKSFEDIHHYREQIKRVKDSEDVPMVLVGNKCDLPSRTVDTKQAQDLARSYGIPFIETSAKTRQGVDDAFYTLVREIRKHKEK
Outline: (§1)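 Displacement measured on KRas residues 1-169 (biotinylated, terbium-streptavidin labelled); 1 h, RT; 1% DMSO final; HEPES pH 7.5 / MgCl2 / Tween-20 / DTT. IC50: 4-parameter fit.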

KRas G12C = target: T4, KRas G12C (Homo sapiens, UniProt P01116, G12C); assay: as above; conditions: 60-minute incubation at room temperature, 1% DMSO, pH 7.5
T4 construct: Biotinylated KRas (corresponding to amino acids 1-169, produced at Accelegan Inc.); biotin (biotinylated); purchased Accelegan Inc
T4 sequence (P01116 1-169 isoform P01116-2 G12C): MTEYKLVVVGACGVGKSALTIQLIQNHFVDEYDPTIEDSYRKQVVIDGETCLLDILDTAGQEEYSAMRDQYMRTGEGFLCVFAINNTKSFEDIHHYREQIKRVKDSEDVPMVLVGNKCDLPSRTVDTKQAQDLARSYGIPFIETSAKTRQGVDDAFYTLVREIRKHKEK
Outline: as §1

KRas WT = target: T5, KRas WT (Homo sapiens, UniProt P01116); assay: as above; conditions: 60-minute incubation at room temperature, 1% DMSO, pH 7.5
T5 construct: Biotinylated KRas (corresponding to amino acids 1-169, produced at Accelegan Inc.); biotin (biotinylated); purchased Accelegan Inc
T5 sequence (P01116 1-169 isoform P01116-2): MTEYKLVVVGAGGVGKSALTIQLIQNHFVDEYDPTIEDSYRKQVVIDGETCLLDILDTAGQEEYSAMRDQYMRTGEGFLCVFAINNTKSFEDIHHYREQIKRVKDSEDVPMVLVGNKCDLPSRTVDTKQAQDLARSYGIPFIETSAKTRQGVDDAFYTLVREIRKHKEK
Outline: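 Biotinylated KRas (residues 1-169) was incubated with tracer, terbium-streptavidin and compound at 1% DMSO final in 50 mM HEPES pH 7.5 containing 5 mM MgCl2, 0.005% Tween-20 and 1 mM DTT. The plate was read after 60 min at room temperature, and percent-of-control data were fit to a 4-parameter IC50 equation.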

[3] = target: T6, KRas-mediated phosphorylation of ERK in MKN1 cells (Homo sapiens, UniProt P01116); assay: Inhibition of KRas-mediated phosphorylation of ERK (HTRF), MKN1 cells; assay type: cell-based; conditions: MKN1 cells (KRas WT); HTRF pERK; 3 h incubation
T6 construct: pERK HTRF read-out
T6 sequence (P01116 1-188 isoform P01116-2): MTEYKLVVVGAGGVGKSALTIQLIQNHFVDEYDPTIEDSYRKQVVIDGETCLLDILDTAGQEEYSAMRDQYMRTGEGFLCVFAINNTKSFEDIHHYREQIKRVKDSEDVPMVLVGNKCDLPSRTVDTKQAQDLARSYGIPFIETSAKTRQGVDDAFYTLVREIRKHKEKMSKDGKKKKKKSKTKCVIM
Procedure: Inhibition of KRas Phosphorylation of ERK (HTRF) by Exemplary Compounds of Formula (Ia) or (Ib)
Cisbio HTRF Advanced pERK Assay Catalog #64AERPEH • Cells: MKN1, PSN1 • Procedure: • 1. Day 1: Seed 6,000 cells/well −25 μl/well in 384-well white solid bottom plate; RPM1_10% FBS. Incubate overnight at 37 °C/5% CO2. • 2.

T1 sequence (P01116 1-188 isoform P01116-2 G12S): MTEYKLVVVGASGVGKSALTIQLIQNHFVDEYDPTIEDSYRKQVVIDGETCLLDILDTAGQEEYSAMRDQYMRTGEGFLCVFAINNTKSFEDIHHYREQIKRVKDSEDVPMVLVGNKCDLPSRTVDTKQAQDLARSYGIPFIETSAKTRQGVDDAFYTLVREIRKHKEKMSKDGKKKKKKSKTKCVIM

IC50 [1]	IC50 [2]	IC50 (KRas G12S)	IC50 (KRas G12C)	IC50 (KRas WT)	IC50 [3]	SMILES
701 nM	1320 nM	134 nM	183 nM	103 nM	323 nM	CCc1c(F)ccc2cc(O)cc(-c3ncc4c(N(C)CC(C)CC(=O)N(C)C(C)=O)nc(OC[C@@]56CCCN5C[C@H](F)C6)nc4c3F)c12 (stereo partly drawn) [Example 283, N-acetyl-4-((7-(8-ethyl-7-fluoro-3-hydroxynaphthalen-1-yl)-8-fluoro-2-(((2R,7aS)-2-fluorotetrahydro-1H-pyrrolizin-7a(5H)-yl)methoxy)pyrido[4,3-d]pyrimidin-4-yl)(methyl)amino)-N,3-dimethylbutanamide]
7 nM	39 nM	5 nM	8 nM	77 nM	446 nM	CCc1c(F)ccc2cc(O)cc(-c3ncc4c(N(C)CCC(C)C(=O)N(C)C(C)=O)nc(OC[C@@]56CCCN5C[C@H](F)C6)nc4c3F)c12 (stereo partly drawn) [Example 284, N-acetyl-4-((7-(8-ethyl-7-fluoro-3-hydroxynaphthalen-1-yl)-8-fluoro-2-(((2R,7aS)-2-fluorotetrahydro-1H-pyrrolizin-7a(5H)-yl)methoxy)pyrido[4,3-d]pyrimidin-4-yl)(methyl)amino)-N,2-dimethylbutanamide]
104 nM	13 nM	16 nM	6 nM	170 nM	360 nM	N#Cc1c(N)sc2c(F)ccc(-c3c(Cl)cc4c(N5CCC(C(=O)Oc6ccccc6)CC5)nc(OC[C@@]56CCCN5C[C@H](F)C6)nc4c3F)c12 [Example 287, phenyl 1-(7-(2-amino-3-cyano-7-fluorobenzo[b]thiophen-4-yl)-6-chloro-8-fluoro-2-(((2R,7aS)-2-fluorotetrahydro-1H-pyrrolizin-7a(5H)-yl)methoxy)quinazolin-4-yl)piperidine-4-carboxylate]

The next lines start with the molecule.

SMILES	IC50 [1]	IC50 [2]	IC50 (KRas G12S)	IC50 (KRas G12C)	IC50 (KRas WT)	IC50 [3]
CCc1c(F)ccc2cc(O)cc(-c3ncc4c(N5CCCC(C(=O)N(C)C(C)=O)CC5)nc(OC[C@@]56CCCN5C[C@H](F)C6)nc4c3F)c12 (stereo partly drawn) [Example 285, N-acetyl-1-(7-(8-ethyl-7-fluoro-3-hydroxynaphthalen-1-yl)-8-fluoro-2-(((2R,7aS)-2-fluorotetrahydro-1H-pyrrolizin-7a(5H)-yl)methoxy)pyrido[4,3-d]pyrimidin-4-yl)-N-methylazepane-4-carboxamide]	151 nM	4290 nM	175 nM	882 nM	492 nM	2420 nM
COC(=O)C1CCN(c2nc(OC[C@@]34CCCN3C[C@H](F)C4)nc3c(F)c(-c4ccc(F)c5sc(N)c(C#N)c45)c(Cl)cc23)CC1 [Example 286, Methyl 1-(7-(2-amino-3-cyano-7-fluorobenzo[b]thiophen-4-yl)-6-chloro-8-fluoro-2-(((2R,7aS)-2-fluorotetrahydro-1H-pyrrolizin-7a(5H)-yl)methoxy)quinazolin-4-yl)piperidine-4-carboxylate]	237 nM	106 nM	15 nM	11 nM	6 nM	24 nM
N#Cc1c(N)sc2c(F)ccc(-c3c(Cl)cc4c(N5CCC(C(=O)Oc6ccccc6F)CC5)nc(OC[C@@]56CCCN5C[C@H](F)C6)nc4c3F)c12 [Example 288, 2-fluorophenyl 1-(7-(2-amino-3-cyano-7-fluorobenzo[b]thiophen-4-yl)-6-chloro-8-fluoro-2-(((2R,7aS)-2-fluorotetrahydro-1H-pyrrolizin-7a(5H)-yl)methoxy)quinazolin-4-yl)piperidine-4-carboxylate]	77 nM	24 nM	20 nM	9 nM	143 nM	246 nM
